# Reference: patent publication US6979664B1, “Composition for accelerating seed germination and plant growth” (Bios Agriculture Inc., priority 1998, dated 2005)
# How the values were obtained:
# Type in all cases: in vivo
# Corn = assay: seedling emergence under field condition; conditions: six days after planting
# Method: (§1) Seeds were surface sterilized with 2% sodium hypochlorite and soaked in different concentrations (10^−5, 10^−7, 10^−9M) of LCO solution for 12 h. Water served as the control. The study was conducted at the experimental field of the Macdonald campus of McGill University, Ste-Anne-de-Belleveue. Quebec, Canada. The field was ploughed to a fine tilth, seeds were hand planted in 1 m rows at 2.5 to 3 cm deep with three replications per treatment. […] The data was analyzed for significance by an ANOVA protected LSD test using SAS system Version 6.1 (SAS Inc., Cary, N.C., USA).
# Cotton = assay: seedling emergence under field condition; conditions: for seedling emergence under field condition: Cotton, six days after planting
# Method: as §1
# Beet = assay: seedling emergence under field condition; conditions: six days after planting
# Method: as §1
# Soybean = assay: seedling emergence under field condition; conditions: six days after planting
# Method: as §1
# corn (Zea mays L.) = assay: germination of corn after 72 h of treatment (petri plate); conditions: 25° C.
# Method: Seeds of corn (cv Pioneer 3921) were surface sterilized in 2% sodium hypochlorite solution for 2 minutes and placed in 9 cm diameter Petri plates containing a sheet of filter paper soaked in 10 ml of the required test solution (LCO 10^−5–10^−13). Water served as the control. Observations on germination, length of root primodia and shoot were taken after 72 h of incubation at 25° C. The data was analyzed for significance by an ANOVA protected LSD test using SAS system Version 6.1 (SAS Inc., Cary, N.C., USA).
# Brassica napus = assay: seedling emergence at 15° C.
# Excerpt: (§2) Plastic pots (7.5 cm dia) were filled with 15 g of autoclaved vermiculite. Seeds of corn (Zea mays—Poaceae), bean (Phaseolus vulgaris—Fabaceae), canola (Brassica napus—Brassicaceae), cucumber (Cucumis sativus—Cucurbitaceae), cantaloupe (Cucumis melo—Cucurbitaceae), cotton (Gossypium sp.—Malvaceae), lettuce (Lactuca sativa—Asteraceae), beet (Beta vulgaris—Chenopodiaceae), and soybean (Glycine max—Fabaceae), were placed at 2.5 cm deep at the rate of 5 or 10 seeds per pot. Pots were irrigated with either 25 mL of LCO solution at different concentrations (10^−6–10^−14M) or aqueous acetonitrile or water, as controls. Acetonitrile was included as one of the controls since LCO was purified in this solvent (see Example 3), after 4 days the pots were irrigated with 10 mL of water once every two days. Each treatment had 4 replications in a randomized block design. Pots were placed on a green house bench maintained at 25±2° C. with a day/night cycle 16/8 h and relative humidity of 70%, or in a growth chamber set at 15° C. with a 16:8 day/night cycle. […] As defined above, seedling emergence has occurred when growth of the plant can be observed above the rooting medium surface. The percent emergence was calculated. The data were analyzed with Statistical Analysis System, version 6.12 (SAS institute Inc. Cary, N.C., USA).
# Cucumis sativus = assay: seedling emergence at 15° C.
# Excerpt: as §2
# Cucumis melo = assay: seedling emergence at 25° C.
# Excerpt: as §2
# Phaseolus vulgaris = assay: seedling emergence at 25° C.
# Excerpt: as §2
# Zea mays = assay: seedling emergence at 25° C.
# Excerpt: as §2
# Letuca sativa = assay: seedling emergence at 25° C.
# Excerpt: as §2
# Glycine max = assay: seedling emergence at 25° C.
# Excerpt: as §2
# Beta vulgaris = assay: seedling emergence at 25° C.
# Excerpt: as §2
# Gossypium sp. = assay: seedling emergence at 25° C.
# Excerpt: as §2
structure (smiles),measurement,setting,value
"CCCCCCC=CCCCCCCCCCC(=O)NC1C(OC2C(CO)OC(OC3C(CO)OC(OC4C(CO)OC(OC5C(COC6OC(C)C(O)C(O)C6OC)OC(O)C(NC(C)=O)C5O)C(NC(C)=O)C4O)C(NC(C)=O)C3O)C(NC(C)=O)C2O)OC(CO)C(O)C1O (centres unmarked) [LCO, NodBj-V(C18:1Δ11)]",seedling emergence under field condition,Corn; 10^−7 M seed soak 12 h,60.0 b
same,seedling emergence under field condition,Corn; LCO 10^−5 M seed soak 12 h,80.0 b
same,seedling emergence under field condition,Corn; LCO 10^−9 M seed soak 12 h,53.3 b
same,seedling emergence under field condition,Cotton; 10^−7 M seed soak 12 h,60.0 b
same,seedling emergence under field condition,Cotton; LCO 10^−5 M seed soak 12 h,16.6 a
same,seedling emergence under field condition,Cotton; LCO 10^−9 M seed soak 12 h,23.3 a
same,improvement of emergence as compared to the control,"Cotton; cotton, LCO at 10^−7M, field",more than 9 times
same,seedling emergence under field condition,Beet; 10^−7 M seed soak 12 h,46.6 c
same,seedling emergence under field condition,Beet; LCO 10^−5 M seed soak 12 h,28.3 a
same,seedling emergence under field condition,Beet; LCO 10^−9 M seed soak 12 h,38.3 ab
same,seedling emergence under field condition,Soybean; 10^−7 M seed soak 12 h,33.3 b
same,seedling emergence under field condition,Soybean; LCO 10^−5 M seed soak 12 h,26.6 ab
same,seedling emergence under field condition,Soybean; LCO 10^−9 M seed soak 12 h,63.3 c
same,Length of root primodia,corn (Zea mays L.); LCO 10^−5 M,53.0 ab mm
same,Length of shoot primodia,corn (Zea mays L.); LCO 10^−5 M,12.3 ab mm
same,Percent germination,corn (Zea mays L.); LCO 10^−5 M,80 bc Percent
same,Length of root primodia,corn (Zea mays L.); LCO 10^−7 M,57.6 bc mm
same,Length of shoot primodia,corn (Zea mays L.); LCO 10^−7 M,15.0 ab mm
same,Percent germination,corn (Zea mays L.); LCO 10^−7 M,73.3 b Percent
same,Length of root primodia,corn (Zea mays L.); LCO 10^−9 M,48.0 ab mm
same,Length of shoot primodia,corn (Zea mays L.); LCO 10^−9 M,9.6 a mm
same,Percent germination,corn (Zea mays L.); LCO 10^−9 M,73.3 b Percent
same,Length of root primodia,corn (Zea mays L.); LCO 10^−11 M,78.6 c mm
same,Length of shoot primodia,corn (Zea mays L.); LCO 10^−11 M,21.0 b mm
same,Percent germination,corn (Zea mays L.); LCO 10^−11 M,100 c Percent
same,Length of root primodia,corn (Zea mays L.); LCO 10^−13 M,43.0 bc mm
same,Length of shoot primodia,corn (Zea mays L.); LCO 10^−13 M,8.3 a mm
same,Percent germination,corn (Zea mays L.); LCO 10^−13 M,80 bc Percent
same,seedling emergence,Brassica napus; 10^−6M,35 bc
same,seedling emergence,Brassica napus; 10^−7M,32 c
same,seedling emergence,Brassica napus; 10^−8M,35 bc
same,seedling emergence,Brassica napus; 10^−9M,52 ab
same,seedling emergence,Brassica napus; 10^−10M,62 a
same,seedling emergence,Brassica napus; 10^−11M,47 bc
same,seedling emergence,Brassica napus; 10^−12M,45 bc
same,seedling emergence,Brassica napus; 10^−13M,37 bc
same,seedling emergence,Brassica napus; 10^−14M,30 c
same,seedling emergence,Cucumis sativus; 10^−6M,65 abc
same,seedling emergence,Cucumis sativus; 10^−7M,85 ab
same,seedling emergence,Cucumis sativus; 10^−8M,80 ab
same,seedling emergence,Cucumis sativus; 10^−9M,70 abc
same,seedling emergence,Cucumis sativus; 10^−10M,50 c
same,seedling emergence,Cucumis sativus; 10^−11M,80 ab
same,seedling emergence,Cucumis sativus; 10^−12M,80 ab
same,seedling emergence,Cucumis sativus; 10^−13M,70 abc
same,seedling emergence,Cucumis sativus; 10^−14M,70 abc
same,seedling emergence (%),Cucumis melo; 10^−7 M,100 b %
same,seedling emergence (%),Cucumis melo; 10^−9 M,100 b %
same,seedling emergence (%),Cucumis melo; 10^−11 M,100 b %
same,seedling emergence (%),Cucumis melo; 10^−13 M,100 b %
same,seedling emergence (%),Phaseolus vulgaris; 10^−6 M,67 abc %
same,seedling emergence (%),Phaseolus vulgaris; 10^−7 M,89 a %
same,seedling emergence (%),Phaseolus vulgaris; 10^−8 M,78 ab %
same,seedling emergence (%),Phaseolus vulgaris; 10^−9 M,67 abc %
same,seedling emergence (%),Phaseolus vulgaris; 10^−10 M,44 abc %
same,seedling emergence (%),Phaseolus vulgaris; 10^−11 M,22 c %
same,seedling emergence (%),Phaseolus vulgaris; 10^−12 M,33 bc %
same,seedling emergence (%),Phaseolus vulgaris; 10^−13 M,33 bc %
same,seedling emergence (%),Phaseolus vulgaris; 10^−14 M,33 bc %
same,seedling emergence (%),Zea mays; 10^−6 M,76 ab %
same,seedling emergence (%),Zea mays; 10^−7 M,68 abc %
same,seedling emergence (%),Zea mays; 10^−8 M,84 a %
same,seedling emergence (%),Zea mays; 10^−9 M,88 a %
same,seedling emergence (%),Zea mays; 10^−10 M,84 a %
same,seedling emergence (%),Zea mays; 10^−11 M,68 abc %
same,seedling emergence (%),Zea mays; 10^−12 M,48 abc %
same,seedling emergence (%),Zea mays; 10^−13 M,40 c %
same,seedling emergence (%),Zea mays; 10^−14 M,40 c %
same,seedling emergence (%),Letuca sativa; 10^−6 M,45 a %
same,seedling emergence (%),Letuca sativa; 10^−7 M,35 ab %
same,seedling emergence (%),Letuca sativa; 10^−8 M,10 dc %
same,seedling emergence (%),Letuca sativa; 10^−9 M,20 bcd %
same,seedling emergence (%),Letuca sativa; 10^−10 M,25 abcd %
same,seedling emergence (%),Letuca sativa; 10^−11 M,26 abcd %
same,seedling emergence (%),Letuca sativa; 10^−12 M,30 abc %
same,seedling emergence (%),Letuca sativa; 10^−13 M,5 d %
same,seedling emergence (%),Letuca sativa; 10^−14 M,10 d %
same,seedling emergence (%),Glycine max; 10^−6 M,65 d %
same,seedling emergence (%),Glycine max; 10^−7 M,80 bc %
same,seedling emergence (%),Glycine max; 10^−8 M,90 ab %
same,seedling emergence (%),Glycine max; 10^−9 M,100 a %
same,seedling emergence (%),Glycine max; 10^−10 M,70 cd %
same,seedling emergence (%),Glycine max; 10^−11 M,50 e %
same,seedling emergence (%),Glycine max; 10^−12 M,80 bc %
same,seedling emergence (%),Glycine max; 10^−13 M,70 cd %
same,seedling emergence (%),Glycine max; 10^−14 M,70 cd %
same,seedling emergence (%),Beta vulgaris; 10^−7 M,66.6%
same,seedling emergence (%),Beta vulgaris; 10^−9 M,66 b %
same,seedling emergence (%),Beta vulgaris; 10^−11 M,86 b %
same,seedling emergence (%),Beta vulgaris; 10^−13 M,80 b %
same,seedling emergence (%),Gossypium sp.; 10^−6 M,88 a %
same,seedling emergence (%),Gossypium sp.; 10^−7 M,66 ab %
same,seedling emergence (%),Gossypium sp.; 10^−8 M,88 a %
same,seedling emergence (%),Gossypium sp.; 10^−9 M,88 a %
same,seedling emergence (%),Gossypium sp.; 10^−10 M,88 a %
